Assay results published in patent US20160115540A1, “PRODRUGS AND DRUGS” (Biogen MA Inc., priority 2013, published 2016).
Structures can show the parent of a compound that is named as a salt.

Test system: striatum
Assay: Transcriptional profiling on Affymetrix GeneChips, single dose, naïve mice: striatum
Format: in vivo, C57BL/6 mice
Conditions: for Number of differentially expressed genes identified: Striatum: Naïve, Single Dose; for Aox1 (1419435_PM_at) differential expression: 7 hr; for differentially expressed genes: 100DMF-vs-100MMF
Method: Treated mice were sacrificed at 2, 7, or 12 hours. Tissues (liver, spleen, kidney, jejunum, cortex, hippocampus, striatum and whole blood) were collected and analyzed by transcriptional profiling on mouse Affymetrix GeneChips.
Tissues (liver, spleen, kidney, jejunum, cortex, hippocampus, striatum and whole blood) were collected and analyzed by transcriptional profiling on mouse Affymetrix GeneChips.
Animals were exposed to CO2 and whole blood collected via cardiac puncture. Two 100 μl aliquots of whole blood were collected in 1.5 mL microcentrifuge tubes and snap frozen in liquid nitrogen. Peripheral (liver, spleen, kidney and jejunum) and CNS brain (cerebellum, hippocampus, striatum and cortex) tissues were harvested and snap frozen in liquid nitrogen, with special care taken to collect tissues of similar size and from the same location. All samples were stored at −80° C. until RNA extraction was conducted.
For RNA preparation, frozen tissues were placed in 2 mL RNAse-free 96-well blocks with 1.5 mL QIAzol Lysis Reagent (QIAgen) and a 3.2 mm stainless steel bead (BioSpec Products, Bartlesville, Okla.). Tissues were disrupted for four cycles of 45 seconds in a Mini-Beadbeater (Biospec Products). RNA was extracted in chloroform and the aqueous phase was mixed with an equal volume of 70% ethanol. Extracted RNA was applied to RNeasy 96 plates and purified by the spin method according to the manufacturer's protocol (RNeasy 96 Universal Tissue Protocol, QIAgen, Hilden Germany).
Automated sample amplifications and biotin labelings were carried out using the NuGEN Ovation RNA Amplification system V2 (Cat #3100), Ovation WB reagent (Cat #1300) and Encore Biotin module (Cat #4200) (NuGEN Technologies, Inc, San Carlos, Calif.) according to manufacturer's recommendations using an Arrayplex automated liquid handler (Beckman Coulter, Indianapolis, Ind.). Two micrograms of biotin labeled sscDNA probe were hybridized to Affymetrix GeneChip Affymetrix HT_MG-430_PM plate arrays with modified conditions as described in Allaire et al. Washing and staining of the hybridized arrays were completed as described in the GeneChip Expression analysis technical manual for HT plate arrays using the Genechip® Array Station (Affymetrix, Santa Clara, Calif.) with modifications as described in Allaire et al. The processed GeneChip® plate arrays were scanned using GeneTitan scanner (Affymetrix, Santa Clara, Calif.).
Affymetrix scans were subject to quality control (QC) measures. These tests included a visual inspection of the distribution of raw signal intensities and an assessment of RNA degradation, relative log expression (RLE), and normalized unsealed standard error (NUSE). All sample scans that passed these QC metrics were included in the analysis.
All CEL files were subjected to GC-content-based Robust Multi-array Average (GCRMA) normalization (version 2.20.0) (Irizarry R A, et al. Nucleic Acids Res 2003; 31:e15; Li C, et al. Genome Biol 2001; 2:[…]0032). Expression levels were log (base 2) transformed.
All calculations and analyses were carried out using R (version 2.11.1) and Bioconductor computational tools (Gentleman R. Springer Science+Business Media 2005).

[1] = 100 mpk, vs Vehicle, 2 h after last dosing
[2] = 100 mpk, vs Vehicle, 7 h after last dosing
[3] = 100 mpk, vs Vehicle, 12 h after last dosing
[4] = striatum, 2 hr after single 100 mg/kg oral dose
[5] = striatum, 12 hr after single 100 mg/kg oral dose

COC(=O)/C=C/C(=O)OC [DMF, dimethyl fumarate]
Number of differentially expressed genes identified: Striatum (100 mpk DMF-vs-100 mpk MMF, 2 h after last dosing): 0 | Number of differentially expressed genes identified: Striatum (100 mpk DMF-vs-100 mpk MMF, 7 h after last dosing): 0 | Number of differentially expressed genes identified: Striatum (100 mpk DMF-vs-100 mpk MMF, 12 h after last dosing): 0 | Number of differentially expressed genes identified: Striatum [1]: 4 | Number of differentially expressed genes identified: Striatum [2]: 2 | Number of differentially expressed genes identified: Striatum [3]: 2 | Number of genes, DMF Only / MMF Only (Striatum): 5 | Gtpbp10 (1434030_PM_at) differential expression (Striatum, 2 hr): −1.52 | Kdm3b (1428320_PM_at) differential expression (Striatum, 2 hr): −1.54 | Mkln1 (1416734_PM_at) differential expression (Striatum, 2 hr): −1.97 | Ptprg (1456070_PM_at) differential expression (Striatum, 2 hr): −1.54 | Aox1 (1419435_PM_at) differential expression (Striatum): 1.64 | Nfia (1438236_PM_at) differential expression (Striatum, 12 hr): −1.53 | Zeb2 (1422748_PM_at) differential expression (Striatum, 12 hr): −1.66 | differentially expressed genes (striatum, 2 h): None | differentially expressed genes (striatum, 7 h): None | differentially expressed genes (striatum, 12 h): None | FC Gtpbp10 (1434030_PM_at) (striatum, 100DMF-vs-Veh, 2 h): −1.52 | FC Kdm3b (1428320_PM_at) (striatum, 100DMF-vs-Veh, 2 h): −1.54 | FC Mkln1 (1416734_PM_at) (striatum, 100DMF-vs-Veh, 2 h): −1.97 | FC probe 1444791_PM_at (striatum, 100DMF-vs-Veh, 2 h): −1.60 | FC Aox1 (1419435_PM_at) (striatum, 100DMF-vs-Veh, 7 h): 1.64 | FC probe 1443353_PM_at (striatum, 100DMF-vs-Veh, 7 h): −1.83 | FC Nfia (1438236_PM_at) (striatum, 100DMF-vs-Veh, 12 h): −1.53 | FC Zeb2 (1422748_PM_at) (striatum, 100DMF-vs-Veh, 12 h): −1.66

COC(=O)/C=C/C(=O)O [MMF, monomethyl fumarate]
Number of differentially expressed genes identified: Striatum [1]: 6 | Number of differentially expressed genes identified: Striatum [2]: 1 | Number of differentially expressed genes identified: Striatum [3]: 7 | Number of genes, DMF Only / MMF Only (Striatum): 12 | Gna13 (1422556_PM_at) differential expression (Striatum, 2 hr): −1.63 | Golga3 (1449616_PM_s_at) differential expression (Striatum, 2 hr): −1.63 | Grin2a (1421616_PM_at) differential expression (Striatum, 2 hr): −1.78 | Kdm3b (1428320_PM_at) differential expression (Striatum, 2 hr): −1.56 | Lrrc41 (1427125_PM_s_at) differential expression (Striatum, 2 hr): −1.54 | Top2b (1448458_PM_at) differential expression (Striatum, 2 hr): −1.56 | Aox1 (1419435_PM_at) differential expression (Striatum): 1.95 | Adamts9 (1437785_PM_at) differential expression (Striatum, 12 hr): −2.58 | Galnt12 (1437760_PM_at) differential expression (Striatum, 12 hr): 1.50 | Hrh3 (1448807_PM_at) differential expression (Striatum, 12 hr): 1.59 | Itpkb (1435272_PM_at) differential expression (Striatum, 12 hr): −1.56 | Pvrl3 (1457257_PM_x_at) differential expression (Striatum, 12 hr): −1.80 | St18 (1455123_PM_at) differential expression (Striatum, 12 hr): −1.69 | Tmprss6 (1428676_PM_at) differential expression (Striatum, 12 hr): 1.68 | FC Golga3 (1449616_PM_s_at) (striatum, 100MMF-vs-Veh, 2 h): −1.63 | FC Grin2a (1421616_PM_at) (striatum, 100MMF-vs-Veh, 2 h): −1.78 | FC Kdm3b (1428320_PM_at) (striatum, 100MMF-vs-Veh, 2 h): −1.56 | FC Lrrc41 (1427125_PM_s_at) (striatum, 100MMF-vs-Veh, 2 h): −1.54 | FC Top2b (1448458_PM_at) (striatum, 100MMF-vs-Veh, 2 h): −1.56 | FC probe 1442867_PM_at (striatum, 100MMF-vs-Veh, 2 h): −1.57 | FC Aox1 (1419435_PM_at) (striatum, 100MMF-vs-Veh, 7 h): 1.95 | FC Adamts9 (1437785_PM_at) (striatum, 100MMF-vs-Veh, 12 h): −2.58 | FC Galnt12 (1437760_PM_at) (striatum, 100MMF-vs-Veh, 12 h): 1.50 | FC Hrh3 (1448807_PM_at) (striatum, 100MMF-vs-Veh, 12 h): 1.59 | FC Itpkb (1435272_PM_at) (striatum, 100MMF-vs-Veh, 12 h): −1.56 | FC Pvrl3 (1457257_PM_x_at) (striatum, 100MMF-vs-Veh, 12 h): −1.80 | FC St18 (1455123_PM_at) (striatum, 100MMF-vs-Veh, 12 h): −1.69 | FC Tmprss6 (1428676_PM_at) (striatum, 100MMF-vs-Veh, 12 h): 1.68 | Gna13 mRNA fold change vs vehicle [4]: −1.63 | Golga3 mRNA fold change vs vehicle [4]: −1.63 | Grin2a mRNA fold change vs vehicle [4]: −1.78 | Kdm3b mRNA fold change vs vehicle [4]: −1.56 | Lrrc41 mRNA fold change vs vehicle [4]: −1.54 | Top2b mRNA fold change vs vehicle [4]: −1.56 | Aox1 mRNA fold change vs vehicle (striatum, 7 hr after single 100 mg/kg oral dose): 1.95 | Adamts9 mRNA fold change vs vehicle [5]: −2.58 | Galnt12 mRNA fold change vs vehicle [5]: 1.50 | Hrh3 mRNA fold change vs vehicle [5]: 1.59 | Itpkb mRNA fold change vs vehicle [5]: −1.56 | Pvrl3 mRNA fold change vs vehicle [5]: −1.80 | St18 mRNA fold change vs vehicle [5]: −1.69 | Tmprss6 mRNA fold change vs vehicle [5]: 1.68
